Measured values published in patent publication US20240150293A1, “SPIROCYCLOHEXANE DERIVATIVES, PHARMACEUTICAL COMPOSITIONS CONTAINING THEM AND THEIR USES AS ANTI-APOPTOTIC INHIBITORS” (LES LABORATOIRES SERVIER, priority 2021, published 2024).

molecular target: Mcl-1 protein (UniProtKB Q07820) (Homo sapiens (Human), UniProt Q07820); assay: Inhibition of Mcl-1 by the fluorescence polarisation assay (Example A, Method A); assay type: binding; details: fluorescence polarization assay
Procedure, shortened: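 Protein (5 nM) and fluorescein-tagged peptide tracer (1 nM) incubated with 11-point compound series for 2 h at room temperature in HEPES/NaCl/Tween 20 buffer, pH 7.4, 5% DMSO. Displacement read as decrease in polarisation; IC50 fitted by 4-parameter logistic, converted to Ki (cKi or eKi).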

Mcl-1 protein, sequence (Q07820 whole entry): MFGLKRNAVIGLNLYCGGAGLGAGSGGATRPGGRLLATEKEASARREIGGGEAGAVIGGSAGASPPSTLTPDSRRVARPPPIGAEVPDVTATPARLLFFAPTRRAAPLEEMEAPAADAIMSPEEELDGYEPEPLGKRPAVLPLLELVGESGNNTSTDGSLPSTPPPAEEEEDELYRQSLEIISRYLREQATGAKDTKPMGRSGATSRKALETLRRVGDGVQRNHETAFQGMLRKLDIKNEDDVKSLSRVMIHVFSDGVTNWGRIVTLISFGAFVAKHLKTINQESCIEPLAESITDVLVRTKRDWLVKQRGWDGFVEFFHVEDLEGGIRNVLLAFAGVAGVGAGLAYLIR

In order of falling Ki:
1. Cc1ccc(C2=Cc3ccccc3C23CCC(Nc2cccc(Br)c2)(C(=O)O)CC3)cc1Cl (single isomer, unassigned) [Example 234, 4-(3-bromoanilino)-2′-(3-chloro-4-methylphenyl)spiro[cyclohexane-1,1′-indene]-4-carboxylic acid]  115000 nM
2. O=C(O)[C@]1(Nc2cccc(Br)c2)CC[C@@]2(CC1)C(CCCc1ccccc1)=Cc1ccccc12 [Example 149, (1s,4s)-4-(3-bromoanilino)-2′-(3-phenylpropyl)spiro[cyclohexane-1,1′-indene]-4-carboxylic acid]  63300 nM
3. Cc1ccc2c(c1)[C@]1(CC[C@](Nc3cccc(Br)c3)(C(=O)O)CC1)C(=O)N2C [Example 7, (1r,4r)-4-(3-bromoanilino)-1′,5′-dimethyl-2′-oxo-1′,2′-dihydrospiro[cyclohexane-1,3′-indole]-4-carboxylic acid]  23800 nM
4. CN1c2ccc(/C=C/Cc3ccccc3)cc2[C@]2(CC[C@](Nc3cccc(Br)c3)(C(=O)O)CC2)C1=O [Example 19, (1r,4r)-4-(3-bromoanilino)-1′-methyl-2′-oxo-5′-[(1E)-3-phenylprop-1-en-1-yl]-1′,2′-dihydrospiro[cyclohexane-1,3′-indole]-4-carboxylic acid]  21100 nM
5. COc1cccc(C2Cc3ccccc3[C@]23CC[C@@](Nc2cccc(Cl)c2)(C(=O)O)CC3)c1C (single isomer, unassigned) [Example 322, (1r,4r)-4-(3-chloroanilino)-2′-(3-methoxy-2-methylphenyl)-2′,3′-dihydrospiro[cyclohexane-1,1′-indene]-4-carboxylic acid]  17700 nM
6. CN(CCc1ccncc1)C(=O)C1Cc2ccccc2[C@]12CC[C@@](Nc1cccc(Cl)c1)(C(=O)O)CC2 (single isomer, unassigned) [Example 404, (1r,4r)-4-(3-chloroanilino)-2′-{methyl[2-(pyridin-4-yl)ethyl]carbamoyl}-2′,3′-dihydrospiro[cyclohexane-1,1′-indene]-4-carboxylic acid]  7780 nM
7. CN1c2ccc(CCc3ccccc3)cc2[C@]2(CC[C@](Nc3cccc(Br)c3)(C(=O)O)CC2)C1=O [Example 11, (1r,4r)-4-(3-bromoanilino)-1′-methyl-2′-oxo-5′-(2-phenylethyl)-1′,2′-dihydrospiro[cyclohexane-1,3′-indole]-4-carboxylic acid]  6430 nM
8. CN1CC2(CCC(Nc3cccc(Br)c3)(C(=O)O)CC2)c2ccccc21 (stereo not shown) [Example 4, 4-(3-bromoanilino)-1′-methyl-1′,2′-dihydrospiro[cyclohexane-1,3′-indole]-4-carboxylic acid]  5950 nM
9. Cc1ccc(C2Cc3ccccc3C23CCC(Nc2cccc(Br)c2)(C(=O)O)CC3)s1 (single isomer, unassigned) [Example 263, 4-(3-bromoanilino)-2′-(5-methylthiophen-2-yl)-2′,3′-dihydrospiro[cyclohexane-1,1′-indene]-4-carboxylic acid]  5020 nM
10. COc1cc(OC)cc([C@@H]2Cc3ccccc3[C@]23CC[C@@](Nc2cccc(Cl)c2)(C(=O)O)CC3)c1 [Example 336, (1r,2′S,4S)-4-(3-chloroanilino)-2′-(3,5-dimethoxyphenyl)-2′,3′-dihydrospiro[cyclohexane-1,1′-indene]-4-carboxylic acid]  2440 nM
11. Cc1ccc(C2=Cc3ccccc3[C@]23CC[C@@](Nc2cccc(Cl)c2)(C(=O)O)CC3)cc1 [Example 297, (1s,4s)-4-(3-chloroanilino)-2′-(4-methylphenyl)spiro[cyclohexane-1,1′-indene]-4-carboxylic acid]  2370 nM
12. O=C(O)[C@]1(Nc2cccc(C(F)F)c2)CC[C@]2(CC1)C(Br)=Cc1ccccc12 [Example 83, (1s,4s)-2′-bromo-4-[3-(difluoromethyl)anilino]spiro[cyclohexane-1,1′-indene]-4-carboxylic acid]  1360 nM
13. O=C(O)[C@]1(Nc2cccc(Cl)c2)CC[C@]2(CC1)C(c1ccc3ccoc3c1)=Cc1ccccc12 [Example 265, (1s,4s)-2′-(1-benzofuran-6-yl)-4-(3-chloroanilino)spiro[cyclohexane-1,1′-indene]-4-carboxylic acid]  1100 nM
14. COc1cccc(C2=Cc3ccccc3[C@]23CC[C@@](Nc2cccc(Cl)c2)(C(=O)O)CC3)c1 [Example 253, (1s,4s)-4-(3-chloroanilino)-2′-(3-methoxyphenyl)spiro[cyclohexane-1,1′-indene]-4-carboxylic acid]  836 nM
15. O=C(O)[C@]1(Nc2cccc(Cl)c2)CC[C@@]2(CC1)c1ccccc1CC2c1ccc(OCc2ccccc2)cc1 (single isomer, unassigned) [Example 352, (1r,4r)-2′-[4-(benzyloxy)phenyl]-4-(3-chloroanilino)-2′,3′-dihydrospiro[cyclohexane-1,1′-indene]-4-carboxylic acid]  802 nM
16. O=C(O)[C@]1(Nc2cccc(Cl)c2)CC[C@]2(CC1)C(COCCc1ccc(F)cc1)=Cc1ccccc12 [Example 413, (1s,4s)-4-(3-chloroanilino)-2′-{[2-(4-fluorophenyl)ethoxy]methyl}spiro[cyclohexane-1,1′-indene]-4-carboxylic acid]  704 nM
17. Cc1ccc(C2Cc3ccccc3[C@]23CC[C@@](Nc2cccc(Cl)c2)(C(=O)O)CC3)cc1 (single isomer, unassigned) [Example 306, (1r,4r)-4-(3-chloroanilino)-2′-(4-methylphenyl)-2′,3′-dihydrospiro[cyclohexane-1,1′-indene]-4-carboxylic acid]  663 nM
18. O=C(O)[C@]1(Nc2cccc(Cl)c2)CC[C@@]2(CC1)c1ccccc1CC2CCCOC1CCOc2ccccc21 (stereo partly shown) [Example 471, (1r,4r)-4-(3-chloroanilino)-2′-{3-[(3,4-dihydro-2H-1-benzopyran-4-yl)oxy]propyl}-2′,3′-dihydrospiro[cyclohexane-1,1′-indene]-4-carboxylic acid]  620 nM
19. O=C(O)[C@]1(Nc2cccc(Cl)c2)CC[C@@]2(CC1)c1ccccc1CC2CCCSc1ccccc1 (stereo partly shown) [Example 397, (1r,4r)-4-(3-chloroanilino)-2′-[3-(phenylsulfanyl)propyl]-2′,3′-dihydrospiro[cyclohexane-1,1′-indene]-4-carboxylic acid]  598 nM
20. O=C(O)[C@]1(Nc2cccc(Cl)c2)CC[C@]2(CC1)C(C1CC(OCc3ccccc3)C1)=Cc1ccccc12 (stereo partly shown) [Example 97, (1r,4r)-2′-[3-(benzyloxy)cyclobutyl]-4-(3-chloroanilino)spiro[cyclohexane-1,1′-indene]-4-carboxylic acid]  578 nM
21. O=C(O)[C@]1(Nc2cccc(Cl)c2)CC[C@]2(CC1)C(COCCc1cccc(F)c1)=Cc1ccccc12 [Example 412, (1s,4s)-4-(3-chloroanilino)-2′-{[2-(3-fluorophenyl)ethoxy]methyl}spiro[cyclohexane-1,1′-indene]-4-carboxylic acid]  473 nM
22. O=C(O)[C@]1(Nc2cccc(Cl)c2)CC[C@@]2(CC1)c1ccccc1C[C@H]2c1ccc2occc2c1 [Example 281, (1r,2′S,4S)-2′-(1-benzofuran-5-yl)-4-(3-chloroanilino)-2′,3′-dihydrospiro[cyclohexane-1,1′-indene]-4-carboxylic acid]  473 nM
23. COc1cccc([C@@H]2Cc3ccccc3[C@]23CC[C@@](Nc2cccc(Br)c2)(C(=O)O)CC3)c1 [Example 219, (1r,2′S,4S)-4-(3-bromoanilino)-2′-(3-methoxyphenyl)-2′,3′-dihydrospiro[cyclohexane-1,1′-indene]-4-carboxylic acid]  381 nM
24. O=C(O)[C@]1(Nc2cccc(Cl)c2)CC[C@@]2(CC1)c1ccccc1CC2c1cccc(Oc2ccncc2)c1 (single isomer, unassigned) [Example 376, (1r,4r)-4-(3-chloroanilino)-2′-{3-[(pyridin-4-yl)oxy]phenyl}-2′,3′-dihydrospiro[cyclohexane-1,1′-indene]-4-carboxylic acid]  267 nM
25. O=C(O)[C@]1(Nc2cccc(Cl)c2)CC[C@]2(CC1)C(Br)=Cc1ccc(Cl)cc12 [Example 134, (1s,4s)-2′-bromo-6′-chloro-4-(3-chloroanilino)spiro[cyclohexane-1,1′-indene]-4-carboxylic acid]  265 nM
26. O=C(O)[C@]1(Nc2cccc(Cl)c2)CC[C@@]2(CC1)c1ccccc1CC2CCOc1ccccc1 (stereo partly shown) [Example 177, (1r,4r)-4-(3-chloroanilino)-2′-(2-phenoxyethyl)-2′,3′-dihydrospiro[cyclohexane-1,1′-indene]-4-carboxylic acid]  226 nM
27. O=C(O)[C@]1(Nc2cccc(Cl)c2)CC[C@@]2(CC1)c1ccccc1CC2CCOc1ccncc1F (stereo partly shown) [Example 188, (1r,4r)-4-(3-chloroanilino)-2′-{2-[(3-fluoropyridin-4-yl)oxy]ethyl}-2′,3′-dihydrospiro[cyclohexane-1,1′-indene]-4-carboxylic acid]  214 nM
28. O=C(O)[C@]1(Nc2cccc(Cl)c2)CC[C@@]2(CC1)c1ccccc1CC2CCCOc1ccccc1C(F)(F)F (stereo partly shown) [Example 443, (1r,4r)-4-(3-chloroanilino)-2′-{3-[2-(trifluoromethyl)phenoxy]propyl}-2′,3′-dihydrospiro[cyclohexane-1,1′-indene]-4-carboxylic acid]  106 nM
29. O=C(O)[C@]1(Nc2cccc(Cl)c2)CC[C@]2(CC1)C(CCOCc1ccccc1)=Cc1ccccc12 [Example 395, (1r,4r)-2′-[2-(benzyloxy)ethyl]-4-(3-chloroanilino)spiro[cyclohexane-1,1′-indene]-4-carboxylic acid]  101 nM
30. O=C(O)[C@]1(Nc2cccc(Cl)c2)CC[C@@]2(CC1)c1ccccc1CC2CCOc1cccc2[nH]ccc12 (stereo partly shown) [Example 185, (1r,4r)-4-(3-chloroanilino)-2′-{2-[(1H-indol-4-yl)oxy]ethyl}-2′,3′-dihydrospiro[cyclohexane-1,1′-indene]-4-carboxylic acid]  74 nM
31. O=C(O)[C@]1(Nc2cccc(Cl)c2)CC[C@@]2(CC1)c1ccccc1CC2CCCOc1ccncc1F (stereo partly shown) [Example 432, (1r,4r)-4-(3-chloroanilino)-2′-{3-[(3-fluoropyridin-4-yl)oxy]propyl}-2′,3′-dihydrospiro[cyclohexane-1,1′-indene]-4-carboxylic acid]  38.9 nM
